Values after ≈ are worked out from the molar mass of the structure shown.
How the values were obtained:
[1] = Partition coefficient, phosphate buffer/n-octanol; format: physicochemical; conditions: n-octanol/50 mm phosphate buffer; 50 mM phosphate buffer (pH 7.4, μ=0.15)/n-octanol
Procedure: Following the method proposed by Akira Tsuji et al. in Antimicrob. Agents Chemother., 32, 190-194 (1988), 50 mM phosphate buffer (pH 7.4, μ=0.15)/n-octanol partition coefficients were measured.

[2] = test system: P. aeruginosa (IFO 3445); test: Minimum inhibitory concentration, standard method of the Japan Society of Chemotherapy; format: cell-based; conditions: Pseudomonas aeruginosa, IFO3445
Procedure: (§1) With respect to certain representative compounds among the compounds [I] of the present invention, their minimum inhibitory concentrations (MIC; μg/ml) were measured in accordance with the standard method established by the Japan Society of Chemotherapy [CHEMOTHERAPY, 29(1), 76-79 (1981)]. The results are summarized in Table 1, in which the compound numbers are as shown in examples.

[3] = test system: E. coli NIH JC-2 (IFO 12734); test: as above; format: cell-based; conditions: Escherichia coli, IFO12734
Procedure: as §1

[4] = test system: S. aureus 209 P (IFO 12732); test: as above; format: cell-based; conditions: Staphylococcus aureus, IFO12732
Procedure: as §1

[5] = test system: mice; test: Interaction with fenbufen and toxicological study (coadministration test with fenbufen); format: in vivo
Procedure: Fenbufen and the quinolone compounds were each diluted with a solution of 0.5% methylcellulose.
A dose of 200 mg/kg of fenbufen was administered by oral route to groups of 10 mice (female, ICR, 18-23 g) 90 minutes before administration of the quinolone compounds by oral route, at a dose of 500 mg/kg. […] Following the 24 hours number of survival animals was noted.

SMILES | logD [1] | MIC [2] | MIC [3] | MIC [4] | Induction of convulsion, number of positive mice ([5]; mouse, in vivo) | Mortality, number of dead mice ([5]; mouse, in vivo) | Mortality, number of dead mice ([5]; quinolone 500 mg/kg oral, 90 min after fenbufen 200 mg/kg oral, 24 hours) | Induction of convulsion, number of positive mice ([5]; quinolone 500 mg/kg oral, 90 min after fenbufen 200 mg/kg oral, during two hours)
C[C@H]1CN(c2c(F)c(N)c3c(=O)c(C(=O)O)cn(C4COC4)c3c2F)C[C@H]1N (single isomer, unassigned) [Compound 113, 5-Amino-7-{(-)-cis-3-amino-4-methylpyrrolidin-1-yl}-6,8-difluoro-1-(oxetan-3-yl)-1,4-dihydro-4-oxoquinoline-3-carboxylic acid] | -0.529 | – | – | – | – | – | – | –
CN1CCN(c2c(F)c(N)c3c(=O)c(C(=O)O)cn(C4COC4)c3c2F)CC1 [Compound 29] | -0.333 | 0.78 µg/mL (≈ 1.98 µM) | 0.1 µg/mL (≈ 0.254 µM) | 0.78 µg/mL (≈ 1.98 µM) | 0/10 | 0/10 | – | –
CN(C)CC1CCN(c2cc3c(cc2F)c(=O)c(C(=O)O)cn3C2COC2)C1 (centres unmarked) [Compound 40] | – | 6.25 µg/mL (≈ 16 µM) | 0.39 µg/mL (≈ 1 µM) | 0.78 µg/mL (≈ 2 µM) | – | – | – | –
NC1CN(c2c(F)cc3c(=O)c(C(=O)O)cn(C4COC4)c3c2F)C1 [Compound 48] | – | 3.13 µg/mL (≈ 8.91 µM) | 0.39 µg/mL (≈ 1.11 µM) | 1.56 µg/mL (≈ 4.44 µM) | – | – | – | –
COc1c(N2CCNCC2)c(F)cc2c(=O)c(C(=O)O)cn(C3COC3)c12 [Compound 81] | – | 3.13 µg/mL (≈ 8.29 µM) | 0.78 µg/mL (≈ 2.07 µM) | 0.78 µg/mL (≈ 2.07 µM) | – | – | – | –
O=C(O)c1cn(C2COC2)c2cc(N3CCC(O)C3)c(F)cc2c1=O (centres unmarked) [Compound 42] | – | 3.13 µg/mL (≈ 8.99 µM) | 0.78 µg/mL (≈ 2.24 µM) | 1.56 µg/mL (≈ 4.48 µM) | – | – | – | –
O=C(O)c1cn(C2COC2)c2c(F)c(N3CCC(O)C3)c(F)cc2c1=O (centres unmarked) [Compound 16] | – | 1.56 µg/mL (≈ 4.26 µM) | 0.39 µg/mL (≈ 1.06 µM) | 0.78 µg/mL (≈ 2.13 µM) | – | – | – | –
NC1CCN(c2nc3c(cc2F)c(=O)c(C(=O)O)cn3C2COC2)C1 (centres unmarked) [Compound 65] | – | 0.39 µg/mL (≈ 1.12 µM) | 0.2 µg/mL (≈ 0.574 µM) | 1.56 µg/mL (≈ 4.48 µM) | – | – | – | –
NC1CN(c2cc3c(cc2F)c(=O)c(C(=O)O)cn3C2COC2)C1 [Compound 41] | – | 6.25 µg/mL (≈ 18.8 µM) | 0.78 µg/mL (≈ 2.34 µM) | 12.5 µg/mL (≈ 37.5 µM) | – | – | – | –
C[C@H]1CN(c2c(F)c(N)c3c(=O)c(C(=O)O)cn(C4COC4)c3c2F)C[C@H]1N.O=S(=O)(O)O (single isomer, unassigned) [Compound 117, 5-Amino-7-{(-)-cis-3-amino-4-methylpyrrolidin-1-yl}-6,8-difluoro-1-(oxetan-3-yl) -1,4-dihydro-4-oxoquinoline-3-carboxylic acid sulfuric acid salt] | – | – | – | – | – | – | 0/10 | 0/10
Cl.N=CN1CCN(c2c(F)c(N)c3c(=O)c(C(=O)O)cn(C4COC4)c3c2F)CC1 [Compound 108, 5-Amino-6,8-difluoro-7-(4-formimidoylpiperazin-1-yl)-1-(oxetan-3-yl)-1,4-dihydro-4-oxoquinoline-3-carboxylic acid hydrochloride] | – | 3.13 µg/mL | 0.78 µg/mL | 0.78 µg/mL | – | – | – | –
CO[C@@H]1CN(c2c(F)cc3c(=O)c(C(=O)O)cn(C4COC4)c3c2F)C[C@H]1N (relative stereo) [Compound 85] | – | 6.25 µg/mL (≈ 15.8 µM) | 1.56 µg/mL (≈ 3.95 µM) | 3.13 µg/mL (≈ 7.92 µM) | – | – | – | –
N=CNC1CCN(c2c(F)c(N)c3c(=O)c(C(=O)O)cn(C4COC4)c3c2F)C1 (centres unmarked) [Compound 110] | – | 6.25 µg/mL (≈ 15.3 µM) | 0.78 µg/mL (≈ 1.91 µM) | 1.56 µg/mL (≈ 3.83 µM) | – | – | – | –
CCn1cc(C(=O)O)c(=O)c2cc(F)c(N3CCNCC3)nc21 [Enoxacin, enoxacin, reference compound] | – | – | – | – | 10/10 | 10/10 | – | –
CN(C)NC1CCN(c2c(F)c(N)c3c(=O)c(C(=O)O)cn(C4COC4)c3c2F)C1 (centres unmarked) [Compound 96] | – | 0.78 µg/mL (≈ 1.84 µM) | 0.1 µg/mL (≈ 0.236 µM) | 0.39 µg/mL (≈ 0.921 µM) | – | – | – | –
O=C(O)c1cn(C2COC2)c2c(F)c(N3CCSCC3)c(F)cc2c1=O [Compound 7] | – | 3.13 µg/mL (≈ 8.19 µM) | 0.78 µg/mL (≈ 2.04 µM) | 0.39 µg/mL (≈ 1.02 µM) | – | – | – | –
CNCC1CCN(c2nc3c(cc2F)c(=O)c(C(=O)O)cn3C2COC2)C1 (centres unmarked) [Compound 70] | – | 6.25 µg/mL (≈ 16.6 µM) | 1.56 µg/mL (≈ 4.14 µM) | 0.39 µg/mL (≈ 1.04 µM) | – | – | – | –

SMILES | logD [1] | MIC [2] | MIC [3] | MIC [4] | Induction of convulsion, number of positive mice ([5]; mouse, in vivo) | Mortality, number of dead mice ([5]; mouse, in vivo) | Mortality, number of dead mice ([5]; quinolone 500 mg/kg oral, 90 min after fenbufen 200 mg/kg oral, 24 hours) | Induction of convulsion, number of positive mice ([5]; quinolone 500 mg/kg oral, 90 min after fenbufen 200 mg/kg oral, during two hours)
Nc1c(F)c(N2CCC(O)C2)c(F)c2c1c(=O)c(C(=O)O)cn2C1COC1 (centres unmarked) [Compound 59] | – | 3.13 µg/mL (≈ 8.21 µM) | 0.39 µg/mL (≈ 1.02 µM) | 0.39 µg/mL (≈ 1.02 µM) | – | – | – | –
C[C@@H]1CN(c2c(F)cc3c(=O)c(C(=O)O)cn(C4COC4)c3c2F)C[C@H]1N.O=C(O)C(F)(F)F (relative stereo) [Compound 97, 7-(Trans-3-amino-4-methylpyrrolidin-1-yl)-6,8-difluoro-1-(oxetan-3-yl)-1,4-dihydro-4-oxoquinoline-3-carboxylic acid trifluoroacetic acid salt] | – | 1.56 µg/mL | 0.39 µg/mL | 0.78 µg/mL | – | – | – | –
CN[C@@H]1CN(c2c(F)cc3c(=O)c(C(=O)O)cn(C4COC4)c3c2F)C[C@@H]1C (relative stereo) [Compound 93] | – | 3.13 µg/mL (≈ 7.96 µM) | 0.78 µg/mL (≈ 1.98 µM) | 1.56 µg/mL (≈ 3.97 µM) | – | – | – | –
NC1CCN(c2c(F)cc3c(=O)c(C(=O)O)cn(C4COC4)c3c2F)C1 (centres unmarked) [Compound 18] | – | 1.56 µg/mL (≈ 4.27 µM) | 0.39 µg/mL (≈ 1.07 µM) | 1.56 µg/mL (≈ 4.27 µM) | – | – | – | –
NCC1CCN(c2c(F)c(N)c3c(=O)c(C(=O)O)cn(C4COC4)c3c2F)C1 (centres unmarked) [Compound 32] | – | 3.13 µg/mL (≈ 7.94 µM) | 0.78 µg/mL (≈ 1.98 µM) | 0.1 µg/mL (≈ 0.254 µM) | – | – | – | –
CCNCC1CCN(c2c(F)cc3c(=O)c(C(=O)O)cn(C4COC4)c3c2F)C1 (centres unmarked) [Compound 47] | – | 6.25 µg/mL (≈ 15.3 µM) | 0.78 µg/mL (≈ 1.91 µM) | 0.2 µg/mL (≈ 0.491 µM) | – | – | – | –
O=C(O)c1cn(C2COC2)c2c(F)c(N3CCCC3)c(F)cc2c1=O [Compound 4, 6,8-Difluoro-1-(oxetan-3-yl)-7-(pyrrolidin-1-yl)-1,4-dihydro-4-oxoquinoline-3-carboxylic acid] | – | 1.56 µg/mL (≈ 4.45 µM) | 0.39 µg/mL (≈ 1.11 µM) | 0.2 µg/mL (≈ 0.571 µM) | – | – | – | –
CN(C)C1CCN(c2cc3c(cc2F)c(=O)c(C(=O)O)cn3C2COC2)C1 (centres unmarked) [Compound 39] | – | 6.25 µg/mL (≈ 16.6 µM) | 0.39 µg/mL (≈ 1.04 µM) | 1.56 µg/mL (≈ 4.16 µM) | – | – | – | –
CC1CN(c2c(F)cc3c(=O)c(C(=O)O)cn(C4COC4)c3c2F)CC(C)N1 (centres unmarked) [Compound 14] | – | 3.13 µg/mL (≈ 7.96 µM) | 0.2 µg/mL (≈ 0.508 µM) | 3.13 µg/mL (≈ 7.96 µM) | – | – | – | –
NCC1CCN(c2cc3c(cc2F)c(=O)c(C(=O)O)cn3C2COC2)C1 (centres unmarked) [Compound 38] | – | 12.5 µg/mL (≈ 34.6 µM) | 3.13 µg/mL (≈ 8.66 µM) | 0.39 µg/mL (≈ 1.08 µM) | – | – | – | –
O=C(O)c1cn(C2COC2)c2c(F)c(N3CC=CC3)c(F)cc2c1=O [Compound 5] | – | 6.25 µg/mL (≈ 17.9 µM) | 0.39 µg/mL (≈ 1.12 µM) | 0.39 µg/mL (≈ 1.12 µM) | – | – | – | –
CCNC1CCN(c2c(F)cc3c(=O)c(C(=O)O)cn(C4COC4)c3c2OC)C1 (centres unmarked) [Compound 82] | – | 12.5 µg/mL (≈ 30.8 µM) | 1.56 µg/mL (≈ 3.85 µM) | 0.78 µg/mL (≈ 1.92 µM) | – | – | – | –
CN1CCN(c2nc3c(cc2F)c(=O)c(C(=O)O)cn3C2COC2)CC1 [Compound 61, 6-Fluoro-7-(4-methylpiperazin-1-yl)-1-(oxetan-3-yl)-1,4-dihydro-4-oxo-1,8-naphthylidine-3-carboxylic acid] | – | 1.56 µg/mL (≈ 4.31 µM) | 0.39 µg/mL (≈ 1.08 µM) | 3.13 µg/mL (≈ 8.64 µM) | – | – | – | –
CNCC1CCN(c2c(F)c(N)c3c(=O)c(C(=O)O)cn(C4COC4)c3c2F)C1 (centres unmarked) [Compound 52] | – | 3.13 µg/mL (≈ 7.66 µM) | 0.78 µg/mL (≈ 1.91 µM) | 0.1 µg/mL (≈ 0.245 µM) | – | – | – | –
CN[C@@H]1CN(c2c(F)c(N)c3c(=O)c(C(=O)O)cn(C4COC4)c3c2F)C[C@H]1C (relative stereo) [Compound 92] | – | 1.56 µg/mL (≈ 3.82 µM) | 0.1 µg/mL (≈ 0.245 µM) | 0.39 µg/mL (≈ 0.955 µM) | – | – | – | –
Nc1c(F)c(N2CCN(O)CC2)c(F)c2c1c(=O)c(C(=O)O)cn2C1COC1 [Compound 107] | – | 6.25 µg/mL (≈ 15.8 µM) | 0.78 µg/mL (≈ 1.97 µM) | 3.13 µg/mL (≈ 7.9 µM) | – | – | – | –
